Experimental data as given in ChEMBL document CHEMBL1201862, “PubChem BioAssay data set” (2004).
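Five concentrations, 48 hours, 96-well plates. GI50: concentration for 50% inhibition of growth.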 Calls of active or inactive are those of the source. Cut-off read from the data, not from the text of the source: active = GI50 up to about 1.1 µM and inactive = higher.

Key:
Test in all cases: inhibition of tumour cell growth, NCI panel, 48 h
OVCAR-4 = test system: OVCAR-4
U-251 = test system: U-251
SK-MEL-5 = test system: SK-MEL-5
OVCAR-8 = test system: OVCAR-8
RPMI-8226 = test system: RPMI-8226
M14 = test system: M14
NCI-H23 = test system: NCI-H23
HCT-116 = test system: HCT-116
MCF7 = test system: MCF7
MDA-N = test system: MDA-N
UACC-62 = test system: UACC-62
KM12 = test system: KM12
A498 = test system: A498
SNB-75 = test system: SNB-75
MDA-MB-231 = test system: MDA-MB-231
786-0 = test system: 786-0
NCI-H522 = test system: NCI-H522
BT-549 = test system: BT-549
Malme-3M = test system: Malme-3M
HCT-15 = test system: HCT-15
SNB-19 = test system: SNB-19
T47D = test system: T47D
Hs-578T = test system: Hs-578T
HCC 2998 = test system: HCC 2998
SF-539 = test system: SF-539
RXF 393 = test system: RXF 393
COLO 205 = test system: COLO 205
OVCAR-3 = test system: OVCAR-3
EKVX = test system: EKVX
TK-10 = test system: TK-10
SK-MEL-28 = test system: SK-MEL-28
NCI-H460 = test system: NCI-H460
SF-295 = test system: SF-295
DU-145 = test system: DU-145
PC-3 = test system: PC-3
SN12C = test system: SN12C
ACHN = test system: ACHN
UACC-257 = test system: UACC-257
CAKI-1 = test system: CAKI-1
K562 = test system: K562
MDA-MB-435 = test system: MDA-MB-435
HOP-92 = test system: HOP-92
SF-268 = test system: SF-268
SK-OV-3 = test system: SK-OV-3
IGROV-1 = test system: IGROV-1
OVCAR-5 = test system: OVCAR-5
HOP-62 = test system: HOP-62
UO-31 = test system: UO-31
LOX IMVI = test system: LOX IMVI
A549 = test system: A549
SW-620 = test system: SW-620
SK-MEL-2 = test system: SK-MEL-2
NCI/ADR-RES = test system: NCI/ADR-RES
MOLT-4 = test system: MOLT-4
NCI-H226 = test system: NCI-H226
CCRF-CEM = test system: CCRF-CEM

For `O=c1[nH]cc(-c2c[nH]c3ccccc23)nc1-c1c[nH]c2ccccc12`, the GI50 (OVCAR-4) was 6.58 µM (inactive), the GI50 (U-251) was 21 µM (inactive) and the GI50 (SK-MEL-5) was 13.4 µM (inactive). The GI50 (OVCAR-8) was 12.8 µM (inactive), the GI50 (RPMI-8226) was 9.73 µM (inactive) and the GI50 (M14) was 10.7 µM (inactive). The GI50 (NCI-H23) was 14.7 µM (inactive), the GI50 (HCT-116) was 10.8 µM (inactive) and the GI50 (MCF7) was 10.2 µM (inactive). The GI50 (MDA-N) was 2.47 µM (inactive), the GI50 (UACC-62) was 11.1 µM (inactive) and the GI50 (KM12) was 4.95 µM (inactive). For the same compound, the GI50 (A498) was 14.7 µM (inactive), the GI50 (SNB-75) was 10.3 µM (inactive) and the GI50 (MDA-MB-231) was 22.3 µM (inactive). For the same compound, the GI50 (786-0) was 11.3 µM (inactive), the GI50 (NCI-H522) was 6.79 µM (inactive) and the GI50 (BT-549) was 15.3 µM (inactive). For the same compound, the GI50 (Malme-3M) was 11.2 µM (inactive), the GI50 (HCT-15) was 11.1 µM and the GI50 (SNB-19) was 15.8 µM (inactive). The GI50 (T47D) was 8.55 µM (inactive), the GI50 (Hs-578T) was 14.2 µM (inactive) and the GI50 (HCC 2998) was 9.57 µM (inactive). The GI50 (SF-539) was 8.63 µM (inactive), the GI50 (RXF 393) was 2.74 µM (inactive) and the GI50 (COLO 205) was 10.9 µM (inactive). For the same compound, the GI50 (OVCAR-3) was 9.51 µM (inactive), the GI50 (EKVX) was 12.2 µM (inactive) and the GI50 (TK-10) was 11.7 µM (inactive). For the same compound, the GI50 (SK-MEL-28) was 15.2 µM (inactive), the GI50 (NCI-H460) was 13.8 µM (inactive) and the GI50 (SF-295) was 4.53 µM (inactive). The GI50 (DU-145) was 13.2 µM (inactive), the GI50 (PC-3) was 14.5 µM (inactive) and the GI50 (SN12C) was 13.2 µM (inactive). For the same compound, the GI50 (ACHN) was 11.6 µM (inactive), the GI50 (UACC-257) was 13 µM (inactive) and the GI50 (CAKI-1) was 3.28 µM (inactive). The GI50 (K562) was 2.96 µM (inactive), the GI50 (MDA-MB-435) was 3.29 µM (inactive) and the GI50 (HOP-92) was 12.3 µM (inactive). For the same compound, the GI50 (SF-268) was 13 µM (inactive), the GI50 (SK-OV-3) was 13.4 µM (inactive) and the GI50 (IGROV-1) was 2.92 µM (inactive). The GI50 (OVCAR-5) was 11.2 µM (inactive), the GI50 (HOP-62) was 12.5 µM (inactive) and the GI50 (UO-31) was 8.51 µM (inactive). For the same compound, the GI50 (LOX IMVI) was 11.2 µM (inactive), the GI50 (A549) was 21 µM (inactive) and the GI50 (SW-620) was 4.9 µM (inactive). The GI50 (SK-MEL-2) was 14.8 µM (inactive) and the GI50 (NCI/ADR-RES) was 16.4 µM (inactive).
`CCC(C)[C@H](NC(=O)[C@H](Cc1ccccc1)NC(=O)N(CC)c1ccccc1)C(=O)N[C@@H](CC(C)C)C(=O)OC` (stereo partly specified) was tested, and the GI50 (OVCAR-4) was 94.4 µM (inactive), the GI50 (U-251) was 38.5 µM (inactive) and the GI50 (SK-MEL-5) was 26.7 µM (inactive). The GI50 (OVCAR-8) was 34 µM (inactive), the GI50 (MOLT-4) was 10.7 µM (inactive) and the GI50 (RPMI-8226) was 8.93 µM (inactive). For the same compound, the GI50 (M14) was 37.6 µM (inactive), the GI50 (NCI-H23) was 31 µM (inactive) and the GI50 (HCT-116) was 32.4 µM (inactive). The GI50 (MCF7) was 25.7 µM (inactive), the GI50 (MDA-N) was 45.1 µM (inactive) and the GI50 (UACC-62) was 48 µM (inactive). For the same compound, the GI50 (KM12) was 22 µM (inactive), the GI50 (A498) was > 100 µM (inactive) and the GI50 (SNB-75) was 70.5 µM (inactive). For the same compound, the GI50 (MDA-MB-231) was 27.7 µM (inactive), the GI50 (786-0) was 40.6 µM (inactive) and the GI50 (BT-549) was 33.5 µM (inactive). For the same compound, the GI50 (Malme-3M) was 31 µM (inactive), the GI50 (HCT-15) was 38.6 µM and the GI50 (SNB-19) was 35.4 µM (inactive). For the same compound, the GI50 (T47D) was 43.5 µM (inactive), the GI50 (Hs-578T) was 63.1 µM (inactive) and the GI50 (HCC 2998) was 42.2 µM (inactive). The GI50 (SF-539) was 24.2 µM (inactive), the GI50 (RXF 393) was 74.1 µM (inactive) and the GI50 (COLO 205) was 60.1 µM (inactive). For the same compound, the GI50 (OVCAR-3) was 24.8 µM (inactive), the GI50 (NCI-H226) was 18 µM (inactive) and the GI50 (EKVX) was 49.3 µM (inactive). For the same compound, the GI50 (TK-10) was 37.9 µM (inactive), the GI50 (SK-MEL-28) was 40.3 µM (inactive) and the GI50 (SF-295) was 59.7 µM (inactive). For the same compound, the GI50 (DU-145) was 33.9 µM (inactive), the GI50 (PC-3) was 35.3 µM (inactive) and the GI50 (SN12C) was 38.6 µM (inactive). The GI50 (ACHN) was 25.6 µM (inactive), the GI50 (UACC-257) was 24.9 µM (inactive) and the GI50 (CCRF-CEM) was 21.4 µM (inactive). The GI50 (CAKI-1) was 58.5 µM (inactive), the GI50 (MDA-MB-435) was 24 µM (inactive) and the GI50 (HOP-92) was 40.7 µM (inactive). For the same compound, the GI50 (SF-268) was 36.5 µM (inactive), the GI50 (SK-OV-3) was > 100 µM (inactive) and the GI50 (IGROV-1) was 20.4 µM (inactive). For the same compound, the GI50 (OVCAR-5) was > 100 µM (inactive), the GI50 (HOP-62) was 33 µM (inactive) and the GI50 (UO-31) was 24.3 µM (inactive). For the same compound, the GI50 (LOX IMVI) was 30.9 µM (inactive), the GI50 (A549) was 52.5 µM (inactive) and the GI50 (SW-620) was 31.6 µM (inactive). For the same compound, the GI50 (SK-MEL-2) was 36.6 µM (inactive) and the GI50 (NCI/ADR-RES) was > 100 µM (inactive).
